Assay results reported in paper PMC8039944, “Characterization of drug-induced human mitochondrial ADP/ATP carrier inhibition” (Theranostics, 2021).
Each block holds one molecule with its values, some of them ahead of it.

Tests used:
[1] = biological target: T1, human mitochondrial ADP/ATP carrier isoform 1 (hAAC1) (Homo sapiens, UniProt P12235); parameters: gene SLC25A4
T1 sequence (P12235 11-298): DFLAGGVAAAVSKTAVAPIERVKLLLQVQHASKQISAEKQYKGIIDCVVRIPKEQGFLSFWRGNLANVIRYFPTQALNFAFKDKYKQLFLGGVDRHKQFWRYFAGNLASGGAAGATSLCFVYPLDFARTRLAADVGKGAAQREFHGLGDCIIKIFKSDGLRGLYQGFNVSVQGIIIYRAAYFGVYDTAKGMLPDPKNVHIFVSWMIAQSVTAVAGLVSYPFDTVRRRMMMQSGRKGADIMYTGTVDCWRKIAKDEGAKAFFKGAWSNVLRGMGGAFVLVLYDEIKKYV

[2] = biological target: T1, human mitochondrial ADP/ATP carrier isoform 1 (hAAC1); experiment: […]-ATP uptake in proteoliposomes, dose-response; assay type: biochemical; parameters: gene SLC25A4; hAAC1Δ1-10, residues 11-298
[3] = biological target: T1, human mitochondrial ADP/ATP carrier isoform 1 (hAAC1); experiment: […]-ATP uptake in proteoliposomes, inhibition at […]; assay type: biochemical; parameters: gene SLC25A4; hAAC1Δ1-10, residues 11-298; conditions: read-out: % inhibition at 100 μM
[4] = biological target: T1, human mitochondrial ADP/ATP carrier isoform 1 (hAAC1); experiment: […]-ATP uptake in proteoliposomes, dose-response; CPM thermal shift (+[…] °C at […]); assay type: biochemical; parameters: gene SLC25A4; hAAC1Δ1-10, residues 11-298

SMILES: Nc1ncnc2c1ncn2[C@@H]1O[C@H](COP(=O)(O)OP(=O)(O)OP(=O)(O)O)[C@@H](O)[C@H]1O [ATP]
Km [1]: 3.2 µM

SMILES: O=C(O)c1ccc2cc(-c3ccc(O)c(C45CC6CC(CC(C6)C4)C5)c3)ccc2c1 [CD-437]
IC50 ([2]; read-out: IC50): 20 µM

SMILES: O=C(O)C[C@@H]1C(=O)O[C@H]2[C@H](OC(=O)c3cc(O)c(O)c(O)c3)[C@@H](OC(=O)c3cc(O)c(O)c4c3[C@H]1[C@H](O)C(=O)O4)[C@H](OC(=O)c1cc(O)c(O)c(O)c1)O[C@@H]2COC(=O)c1cc(O)c(O)c(O)c1 [chebulinic acid]
IC50 [2]: 6.5 µM

SMILES: CC1=C(/C=C/C(C)=C/C=C/C(C)=C/C(=O)O)C(C)(C)CCC1 [tretinoin]
inhibition at 100 µM [3]: 59%

The next lines start with the values.

inhibition at 100 µM [3]: 77%
SMILES: O=C1c2c(O)cccc2Cc2cccc(O)c21 [anthralin]

IC50 [4]: 2.4 µM
SMILES: Cc1ccc(C(=O)Nc2ccc(S(=O)(=O)O)c3cc(S(=O)(=O)O)cc(S(=O)(=O)O)c23)cc1NC(=O)c1cccc(NC(=O)Nc2cccc(C(=O)Nc3cc(C(=O)Nc4ccc(S(=O)(=O)O)c5cc(S(=O)(=O)O)cc(S(=O)(=O)O)c45)ccc3C)c2)c1 [suramin]
